Measurements as given in patent publication US8604042B2, “Bi-aryl meta-pyrimidine inhibitors of kinases” (TargeGen, Inc., priority 2005, dated 2013).
Counter-ions that a name gives are not always drawn.

These molecules were tested against T1, recombinant JAK2 (Homo sapiens, UniProt O60674) (assay: IC50 value determinations for Jak2 kinase, luminescence-based kinase assay (Kinase-Glo)). Settings: Table 1.
T1 construct: purchased Upstate Cell Signaling Solutions
Format: biochemical
Procedure: The IC50 values for compounds were determined using a luminescence-based kinase assay with recombinant JAK2 obtained from Upstate Cell Signaling Solutions. In white, flat bottom, 96-well plates (Nunc) parallel assays were run at room temperature at a final volume of 50 μL.
Two control reactions were also ran: one reaction containing no compound and the second containing neither inhibitor nor peptide substrate. IC50 values were derived from experimental data using the non-linear curve fitting capabilities of Prism (Version 4; GraphPad Software).

T1 sequence (O60674 808-1132 limits assumed): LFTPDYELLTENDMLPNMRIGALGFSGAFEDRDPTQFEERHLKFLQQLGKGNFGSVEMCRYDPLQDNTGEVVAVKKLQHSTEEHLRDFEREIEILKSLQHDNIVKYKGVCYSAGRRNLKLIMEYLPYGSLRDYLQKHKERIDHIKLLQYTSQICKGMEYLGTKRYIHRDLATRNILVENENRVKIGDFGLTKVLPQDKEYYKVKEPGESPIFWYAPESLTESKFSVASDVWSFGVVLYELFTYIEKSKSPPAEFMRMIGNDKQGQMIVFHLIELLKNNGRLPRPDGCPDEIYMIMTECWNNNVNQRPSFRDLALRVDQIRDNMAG

SMILES | IC50 [nM]
CCN(CC)S(=O)(=O)c1cccc(Nc2nc(Nc3ccc(N4CCN(C)CC4)cc3)ncc2C)c1 [N,N-Diethyl-3-{5-methyl-2-(4-(4-methyl-piperazin-1-yl)-phenylamino]-pyrimidin-4-ylamino}-benzenesulfonamide] | 60.3
Cc1cnc(Nc2ccc(CN3CCN(C)CC3)cc2)nc1Nc1cccc(S(=O)(=O)NC(C)(C)C)c1 | 29.8
Cc1cnc(Nc2ccc(Cc3ccncc3)cc2)nc1Nc1cccc(S(=O)(=O)NC(C)(C)C)c1 [N-tert-Butyl-3-[5-methyl-2-(4-pyridin-4-ylmethyl-phenylamino)-pyrimidin-4-ylamino]-benzenesulfonamide] | 80.7
Cc1cnc(Nc2ccc(N3CCN(C)CC3)cc2)nc1Nc1cccc(S(=O)(=O)NC2CCNCC2)c1 [3-{5-Methyl-2-[4-(4-methyl-piperazin-1-yl)-phenylamino]-pyrimidin-4-ylamino}-N-piperidin-4-yl-benzenesulfonamide] | 543
Cc1cnc(Nc2ccc(C(=O)N3CCNCC3)cc2)nc1Nc1cccc(S(=O)(=O)NC(C)(C)C)c1 [N-tert-Butyl-3-{5-methyl-2-[4-(piperazine-1-carbonyl)-phenylamino]-pyrimidin-4-ylamino}-benzenesulfonamide] | 69
Cc1cnc(Nc2ccc(N3CCN(C)CC3)cc2)nc1Nc1cccc(S(=O)(=O)N2CCCC2)c1 [5-Methyl-N2-[4-(4-methyl-piperazin-1-yl)-phenyl]-N4-[3-(pyrrolidine-1-sulfony)-phenyl]-pyrimidine-2,4-diamine Hydrochloride] | 17.1
Cc1cnc(Nc2ccc(N3CCN(C)CC3)cc2)nc1Nc1cccc(N2CCCCC2)c1 [5-methyl-N2-(4-(4-methylpiperazin-1-yl)phenyl)-N4-(3-(piperidin-1-yl)phenyl)pyrimidine-2,4-diamine] | 46.3
O=S(=O)(NCCN1CCCC1)c1ccc(Nc2nccc(Nc3ccc(O)cc3)n2)cc1 [4-[4-(4-Hydroxy-phenylamino)-pyrimidin-2-ylamino]-N-(2-pyrrolidin-1-yl-ethyl)-benzenesulfonamide] | 9740
Cc1cnc(Nc2ccc(C(C)N3CCOCC3)cc2)nc1Nc1cccc(C(C)(C)C)c1 (centres unmarked) [N4-(3-tert-butylphenyl)-5-methyl-N2-(4-(1-morpholinoethyl)-phenyl)pyrimidine-2,4-diamine Hydrochloride] | 19.9
COc1cc(Nc2ncc(C)c(Nc3cccc4c3OCO4)n2)ccc1OCCN1CCCC1 [N4-Benzo[1,3]dioxol-4-yl-N2-[3-methoxy-4-(2-pyrrolidin-1-yl-ethoxy)-phenyl]-5-methyl-pyrimidine-2,4-diamine] | 9.34
Cc1cnc(Nc2ccc(N3CCN(C)CC3)cc2)nc1Nc1cccc(S(=O)(=O)N2CCCCC2)c1 [5-Methyl-N2-[4-(4-methyl-piperazin-1-yl)-phenyl]-N4-[3-(piperidine-1-sulfony)-phenyl]-pyrimidine-2,4-diamine Hydrochloride] | 24.8
Cc1cnc(Nc2ccc(OCCN3CCCC3)cc2)nc1Nc1csc2ccccc12 [N4-Benzo[b]thiophen-3-yl-5-methyl-N2-[4-(2-pyrrolidin-1-yl-ethoxy)-phenyl]-pyrimidine-2,4-diamine] | 12.4
COc1cc(Nc2nc(Nc3ccc(N4CCN(C)CC4)cc3)ncc2C)ccc1Cl [N4-(4-Chloro-3-methoxy-phenyl)-5-methyl-N2-[4-(4-methyl-piperazin-1-yl)-phenyl]-pyrimidine-2,4-diamine] | 5.5
Cc1cnc(Nc2cccc(N3CCNCC3)c2)nc1Nc1cccc(S(=O)(=O)NC(C)(C)C)c1 [N-tert-Butyl-3-[5-methyl-2-(3-piperazin-1-yl-phenylamino)-pyrimidin-4-ylamino]-benzenesulfonamide Hydrochloride] | 18
Cc1cnc(Nc2ccc(N3CCN(C)CC3)cc2)nc1Nc1cccc(S(=O)(=O)N(C)C)c1 [N,N-Dimethyl-3-{5-methyl-2-[4-(4-methyl-piperazin-1-yl)-phenylamino]-pyrimidin-4-ylamino}-benzenesulfonamide] | 9.5
Cc1cnc(Nc2ccc(N3CCN(C)CC3)cc2)nc1Nc1cccc(S(=O)(=O)N2CCOCC2)c1 [5-Methyl-N2-[4-(4-methyl-piperazin-1-yl)-phenyl]-N4-[3-(morpholine-4-sulfonyl)-phenyl]-pyrimidine-2,4-diamine] | 20.7
Cc1cnc(Nc2ccc(N3CCN(C)CC3)cc2)nc1Nc1cccc(NC(=O)Nc2ccccc2)c1 [1-(3-{5-Methyl-2-[4-(4-methyl-piperazin-1-yl)-phenylamino]-pyrimidin-4-ylamino}-phenyl)-3-phenyl-urea] | 63.6
Cc1cnc(Nc2ccc(N3CCN(C)CC3)cc2)nc1Nc1cccc(-n2cccc2)c1 [N4-(3-(1H-pyrrol-1-yl)phenyl)-5-methyl-N2-(4-(4-methylpiperazin-1-yl)phenyl)pyrimidine-2,4-diamine] | 33.8
Cc1cnc(Nc2ccc(OC3CCNCC3)cc2)nc1Nc1cccc(C(C)(C)C)c1 [N4-(3-tert-butylphenyl)-5-methyl-N2-(4-(piperidin-4-yloxy)phenyl)pyrimidine-2,4-diamine Hydrochloride] | 2.73

SMILES | IC50 [nM]
COC(=O)c1cc(Nc2ncc(C)c(Nc3ccc(Cl)c(OC)c3)n2)ccc1N1CCNCC1 [5-[4-(4-Chloro-3-methoxy-phenylamino)-5-methyl-pyrimidin-2-ylamino]-2-piperazin-1-yl-benzoic acid methyl ester] | 5.12
Cc1cnc(Nc2ccc(-n3cccn3)cc2)nc1Nc1cccc(C(C)(C)C)c1 [N2-(4-(1H-pyrazol-1-yl)phenyl)-N4-(3-tert-butylphenyl)-5-methylpyrimidine-2,4-diamine] | 151
Cc1cnc(Nc2ccc(OCCN3CCCC3)cc2)nc1Nc1cccc(C(F)(F)F)c1 [N2-(4-(2-(pyrrolidin-1-yl)ethoxy)phenyl)-N4-(3-(trifluoromethyl)phenyl)-5-methylpyrimidine-2,4-diamine] | 17.6
Cc1cnc(Nc2ccc(N3CCN(C)CC3)cc2)nc1Nc1cccc(S(=O)(=O)C2CCNCC2)c1 [5-Methyl-N2-[4-(4-methyl-piperazin-1-yl)-phenyl]-N4-[3-(piperidine-4-sulfonyl)-phenyl]-pyrimidine-2,4-diamine] | 198
Cc1cnc(Nc2ccc(C3CCNCC3)cc2)nc1Nc1cccc(C(C)(C)C)c1 [N4-(3-tert-butylphenyl)-5-methyl-N2-(4-(piperidin-4-yl)phenyl)pyrimidine-2,4-diamine Hydrochloride] | 20.9
Cc1cnc(Nc2ccc(OCCN3CCCC3)cc2)nc1Nc1ccc(Cl)c2[nH]ccc12 [N2-(4-(2-(pyrrolidin-1-yl)ethoxy)phenyl)-N4-(7-chloro-1H-indol-4-yl)-5-methylpyrimidine-2,4-diamine Hydrochloride] | 1.16
Cc1cnc(Nc2ccc(Cn3ccnc3)cc2)nc1Nc1cccc(S(=O)(=O)NC(C)(C)C)c1 [N-tert-Butyl-3-[2-(4-imidazol-1-ylmethyl-phenylamino)-5-methyl-pyrimidin-4-ylamino]-benzenesulfonamide] | 8.42
Cc1cnc(Nc2ccc(OCCO)nc2)nc1Nc1cccc2c1OCO2 [2-{5-[4-(Benzo[1,3]dioxol-4-ylamino)-5-methyl-pyrimidin-2-ylamino]-pyridin-2-yloxy}-ethanol] | 116
Cc1cnc(Nc2ccc(CN3CCNCC3)cc2)nc1Nc1ccc(Cl)c2[nH]ccc12 [N4-(7-chloro-1H-indol-4-yl)-5-methyl-N2-(4-((piperazin-1-yl)methyl)phenyl)pyrimidine-2,4-diamine Hydrochloride] | 694
Cc1cnc(Nc2ccc(N3CCN(C)CC3)cc2)nc1Nc1ccc(Cl)c2[nH]ccc12 [drawing 356, N4-(7-chloro-1H-indol-4-yl)-5-methyl-N2-(4-(4-methylpiperazin-1-yl)phenyl)pyrimidine-2,4-diamine] | 5.36
Cc1ccc(Nc2nc(Nc3ccc(OCCN4CCCC4)cc3)ncc2C)cc1S(=O)(=O)NC(C)(C)C [N-tert-Butyl-2-methyl-5-{5-methyl-2-[4-(2-pyrrolidin-1-yl-ethoxy)-phenylamino]-pyrimidin-4-ylamino}-benzenesulfonamide] | 44.4
CC(=O)Nc1cccc(Nc2nc(Nc3ccc(OC4CCNCC4)cc3)ncc2C)c1 [N-(3-{5-Methyl-2-[4-(piperidin-4-yloxy)-phenylamino]-pyrimidin-4-ylamino}-phenyl)-acetamide] | 137
Cc1cnc(Nc2ccc(OCCN3CCCC3)cc2)nc1Nc1ccc2c(c1)OCO2 [N4-Benzo[1,3]dioxol-5-yl-5-methyl-N2-[4-(2-pyrrolidin-1-yl-ethoxy)-phenyl]-pyrimidine-2,4-diamine trifluoroacetate] | 87.2
COc1cc(Nc2nc(Nc3ccc(N4CCNCC4)nc3)ncc2C)ccc1Cl [N4-(4-Chloro-3-methoxy-phenyl)-5-methyl-N2-(6-piperazin-1-yl-pyridin-3-yl)-pyrimidine-2,4-diamine] | 12.1
COc1cc(Nc2nc(Nc3ccc(N4CCOCC4)cc3)ncc2C)ccc1Cl [N4-(4-Chloro-3-methoxy-phenyl)-5-methyl-N2-(4-morpholin-4-yl-phenyl)-pyrimidine-2,4-diamine] | 130
Cc1cnc(Nc2ccc(OCCN3CCCC3)cc2)nc1Nc1cccc(OC(F)(F)F)c1 [N2-(4-(2-(pyrrolidin-1-yl)ethoxy)phenyl)-5-methyl-N4-(3-(trifluoromethoxy)phenyl) pyrimidine-2,4-diamine] | 20.7
Cc1cnc(Nc2ccc(OC3CCNCC3)cc2)nc1Nc1cccc(S(=O)(=O)NC(C)(C)C)c1 [N-tert-Butyl-3-(5-methyl-2-[4-(piperidin-4-yloxy)-phenylamino]-pyrimidin-4-ylamino}-benzenesulfonamide] | 7.3
Cc1cn(-c2ccc(Nc3ncc(C)c(Nc4cccc(S(=O)(=O)NC(C)(C)C)c4)n3)cc2)cn1 [N-tert-Butyl-3-{5-methyl-2-[4-(4-methyl-imidazol-1-yl)-phenylamino]-pyrimidin-4-ylamino}-benzenesulfonamide] | 41.7

Same assay, conditions: Table 6

SMILES | IC50 [nM]
COc1cccc(Nc2ccnc(Nc3ccc(OCCN4CCCC4)cc3)n2)c1 [Compound 4] | 105

Same assay, conditions: Table 7, SAR for the P3 region

SMILES | IC50 [nM]
COc1cccc(Nc2ccnc(Nc3ccc(OCCN4CCCC4)cc3)n2)c1 [Compound 4] | 105

Same assay, conditions: Table 8, SAR of the P4 region

SMILES | IC50 [nM]
Cc1cnc(Nc2ccc(N3CCN(C)CC3)cc2)nc1Nc1cc(C)c(Cl)c(C)c1 [Compound 38] | 12
COc1cccc(Nc2ccnc(Nc3ccc(OCCN4CCCC4)cc3)n2)c1 [Compound 4] | 105
